IC50 data for 20 compounds are collected here from patent publication US20240059703A1 (AMGEN INC., priority 2021, published 2024).

For test [1], the system named is MIA PaCa-2 (human pancreatic carcinoma) cells. Briefly: Cell Viability Assay (CellTiter-Glo), MIA PaCa-2. It is filed as cell-based. Conditions: Homo sapiens, MIA PaCa-2, 72 h. Here is the method:
Serially-diluted compound or DMSO was added to the cells, and plates were incubated at 37° C., 5% CO2 for 72 h. Cell viability was measured using a CellTiter-Glo® Luminescent Cell Viability Assay kit (Promega) according to the manufacturer's protocol. The luminescence signal of treated samples was normalized to DMSO control, and data were analyzed using a 4-parameter logistic model to calculate IC50 values.

A further test has as its target KRAS G12C (Homo sapiens (Human), UniProt P01116, C118A/G12C). Briefly: 2 h coupled exchange assay. Format: biochemical. Particulars: Avg 2 h Coupled exchange IC50, 2 h compound pre-incubation. Here is the method:
The term “2 h coupled exchange assay” or “20 h coupled exchange assay” as used herein refers to the assay described in the Section entitled “BIOLOGICAL EVALUATION.”

Test [2] relates to A549 (human lung carcinoma) cells. Briefly: Cell Viability Assay (CellTiter-Glo), A549. It is filed as cell-based. Particulars: Homo sapiens, A549, 72 h. The method, boiled down: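 Cells grown in RPMI 1640 with 10% FBS were seeded at 1.67E+04 cells/mL and left overnight at 37° C., 5% CO2. They were then exposed to serially diluted compound for 72 h, after which CellTiter-Glo luminescence was read, normalized to DMSO, and fitted to a 4-parameter logistic model for IC50.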
A general note: In ATP-based viability assays light output follows the ATP content of the culture.

For orientation: IC50 means the concentration at which inhibition is half-maximal. The low end stands for greater potency, the high end for weaker potency.

Sequence of KRAS G12C (P01116 other isoform, or with tags, fused parts or gaps G12C/C118A): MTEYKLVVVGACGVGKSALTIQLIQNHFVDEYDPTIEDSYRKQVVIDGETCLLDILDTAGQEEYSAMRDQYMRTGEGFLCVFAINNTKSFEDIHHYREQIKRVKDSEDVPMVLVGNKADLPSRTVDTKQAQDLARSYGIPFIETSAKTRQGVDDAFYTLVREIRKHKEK

For `C=CC(=O)N1CC2(CCN(c3nc4c(c(-c5cc(OC)ccc5F)c3C#N)CCC(c3scnc3C)=C4)C2)C1` [Example 23-38, 4-(2-fluoro-5-methoxyphenyl)-7-(4-methyl-1,3-thiazol-5-yl)-2-(2-(2-propenoyl)-2,6-diazaspiro[3.4]octan-6-yl)-5,6-dihydro-3-quinolinecarbonitrile], the values for the IC50 (in test [1]; against KRAS G12C; in test [2]) were 1.54 µM, 0.135 µM and 8.01 µM, respectively.
For `C=CC(=O)N1CC2(CCN(c3nc4c(c(-c5ccccc5OC)c3C#N)CCC(c3scnc3C)=C4)C2)C1` [Example 23-39, 4-(2-methoxyphenyl)-7-(4-methyl-1,3-thiazol-5-yl)-2-(2-(2-propenoyl)-2,6-diazaspiro[3.4]octan-6-yl)-5,6-dihydro-3-quinolinecarbonitrile] the same measures were 2.37 µM, 0.394 µM and 7.69 µM.
Taken in the same sequence, the figures for `C=CC(=O)N1CC2(CCN(c3nc4c(c(-c5ccccc5O)c3C#N)CCC(c3scnc3C)=C4)C2)C1` [Example 23-40, 4-(2-hydroxyphenyl)-7-(4-methyl-1,3-thiazol-5-yl)-2-(2-(2-propenoyl)-2,6-diazaspiro[3.4]octan-6-yl)-5,6-dihydro-3-quinolinecarbonitrile] were 2.28 µM, 0.136 µM and 7.26 µM.
Consider `C=CC(=O)N1CC2(CCN(c3nc4c(c(-c5cccc(O)c5F)c3C#N)CCC(c3scnc3C)=C4)C2)C1` [Example 23-43, 4-(2-fluoro-3-hydroxyphenyl)-7-(4-methyl-1,3-thiazol-5-yl)-2-(2-(2-propenoyl)-2,6-diazaspiro[3.4]octan-6-yl)-5,6-dihydro-3-quinolinecarbonitrile], for which the IC50 in test [1] stood at 4.56 µM; at KRAS G12C, 0.299 µM; in test [2], 8.38 µM.
Turning to `C=CC(=O)N1CC2(CCN(c3nc4c(c(-c5cccc(OC)c5F)c3C#N)CCC(c3scnc3C)=C4)C2)C1` [Example 23-44, 4-(2-fluoro-3-methoxyphenyl)-7-(4-methyl-1,3-thiazol-5-yl)-2-(2-(2-propenoyl)-2,6-diazaspiro[3.4]octan-6-yl)-5,6-dihydro-3-quinolinecarbonitrile], the IC50 amounted to 3.1 µM in test [1], 0.687 µM on KRAS G12C and 5.86 µM in test [2].
Take `C=CC(=O)N1CC2(CCN(c3nc4c(c(-c5cc(O)ccc5Cl)c3C#N)CCC(c3scnc3C)=C4)C2)C1` [Example 23-45, 4-(2-chloro-5-hydroxyphenyl)-7-(4-methyl-1,3-thiazol-5-yl)-2-(2-(2-propenoyl)-2,6-diazaspiro[3.4]octan-6-yl)-5,6-dihydro-3-quinolinecarbonitrile]: the figures for the IC50 (in test [1]; on KRAS G12C; in test [2]) were 1.07 µM, 0.033 µM and over 5 µM, respectively.
Take `C=CC(=O)N1CC2(CCN(c3nc4c(c(-c5cccc(F)c5F)c3C#N)CCC(c3scnc3C)=C4)C2)C1` [Example 23-46, 4-(2,3-difluorophenyl)-7-(4-methyl-1,3-thiazol-5-yl)-2-(2-(2-propenoyl)-2,6-diazaspiro[3.4]octan-6-yl)-5,6-dihydro-3-quinolinecarbonitrile]: the IC50 in test [1] is 1.5 µM; against KRAS G12C, 0.114 µM; in test [2], 5.37 µM.
With `C=CC(=O)N1CC2(CCN(c3nc4c(c(-c5cc(O)ccc5F)c3C#N)CCC(c3scnc3C)=C4)C2)C1` [Example 23-47, 4-(2-fluoro-5-hydroxyphenyl)-7-(4-methyl-1,3-thiazol-5-yl)-2-(2-(2-propenoyl)-2,6-diazaspiro[3.4]octan-6-yl)-5,6-dihydro-3-quinolinecarbonitrile], the IC50 in test [1] is over 5 µM; on KRAS G12C, 0.044 µM; in test [2] it was over 5 µM.
Consider `C=CC(=O)N1CC2(CCN(c3nc4c(c(-c5c(C)cccc5F)c3C#N)CCC(c3scnc3C)=C4)C2)C1` [Example 23-48, 4-(2-fluoro-6-methylphenyl)-7-(4-methyl-1,3-thiazol-5-yl)-2-(2-(2-propenoyl)-2,6-diazaspiro[3.4]octan-6-yl)-5,6-dihydro-3-quinolinecarbonitrile], for which the values for the IC50 (in test [1]; on KRAS G12C; in test [2]) were 0.761 µM, 0.112 µM and 3.43 µM, respectively.
Taken in the same sequence, the figures for `C=CC(=O)N1CC2(CCN(c3nc4c(c(-c5ncccc5F)c3C#N)CCC(c3scnc3C)=C4)C2)C1` [Example 23-49, 4-(3-fluoro-2-pyridinyl)-7-(4-methyl-1,3-thiazol-5-yl)-2-(2-(2-propenoyl)-2,6-diazaspiro[3.4]octan-6-yl)-5,6-dihydro-3-quinolinecarbonitrile] were 0.67 µM, 0.197 µM and over 5 µM.
Take `C=CC(=O)N1CC2(CCN(c3nc4c(c(-c5ccccc5F)c3C#N)CCC(c3scnc3COC)=C4)C2)C1` [Example 23-52, 4-(2-fluorophenyl)-7-(4-(methoxymethyl)-1,3-thiazol-5-yl)-2-(2-(2-propenoyl)-2,6-diazaspiro[3.4]octan-6-yl)-5,6-dihydro-3-quinolinecarbonitrile]: the IC50 is 0.779 µM in test [1], 0.109 µM on KRAS G12C and 3.41 µM in test [2].
For `C=CC(=O)N1CC2(CCN(c3nc4c(c(-c5cccc(F)c5OC)c3C#N)CCC(c3scnc3C)=C4)C2)C1` [Example 23-53, 4-(3-fluoro-2-methoxyphenyl)-7-(4-methyl-1,3-thiazol-5-yl)-2-(2-(2-propenoyl)-2,6-diazaspiro[3.4]octan-6-yl)-5,6-dihydro-3-quinolinecarbonitrile] the same measures were 1.23 µM, 0.391 µM and 8.87 µM.
For `C=CC(=O)N1CC2(CCN(c3nc4c(c(-c5cccc(F)c5O)c3C#N)CCC(c3scnc3C)=C4)C2)C1` [Example 23-54, 4-(3-fluoro-2-hydroxyphenyl)-7-(4-methyl-1,3-thiazol-5-yl)-2-(2-(2-propenoyl)-2,6-diazaspiro[3.4]octan-6-yl)-5,6-dihydro-3-quinolinecarbonitrile] the same measures were 2.11 µM, 0.112 µM and over 5 µM.
For `C=CC(=O)N1CC2(CCN(c3nc4c(c(-c5cccc(O)c5)c3C#N)CCC(c3scnc3C)=C4)C2)C1` [Example 23-55, 4-(3-hydroxyphenyl)-7-(4-methyl-1,3-thiazol-5-yl)-2-(2-(2-propenoyl)-2,6-diazaspiro[3.4]octan-6-yl)-5,6-dihydro-3-quinolinecarbonitrile] the same measures were 2.12 µM, 0.12 µM and over 5 µM.
As to `C=CC(=O)N1CC2(CCN(c3nc4c(c(-c5ccccc5F)c3C#N)CCC(c3scnc3CO)=C4)C2)C1` [Example 23-56, 4-(2-fluorophenyl)-7-(4-(hydroxymethyl)-1,3-thiazol-5-yl)-2-(2-(2-propenoyl)-2,6-diazaspiro[3.4]octan-6-yl)-5,6-dihydro-3-quinolinecarbonitrile], the IC50 in test [1] was 0.487 µM; against KRAS G12C it was 0.128 µM; in test [2], over 5 µM.
For `C=CC(=O)N1CC2(CCN(c3nc4c(c(-c5ncccc5F)c3C#N)CCC(c3c(C)cnn3C)=C4)C2)C1` [Example 23-58, 7-(1,4-dimethyl-1H-pyrazol-5-yl)-4-(3-fluoro-2-pyridinyl)-2-(2-(2-propenoyl)-2,6-diazaspiro[3.4]octan-6-yl)-5,6-dihydro-3-quinolinecarbonitrile] the same measures were 2.06 µM, 0.841 µM and 10.7 µM.
Regarding `C=CC(=O)N1CC2(CCN(c3nc4c(c(-c5ncccc5F)c3C#N)CC[C@H](c3scnc3C)C4)C2)C1` [Example 23-60, (7S)-4-(3-fluoro-2-pyridinyl)-7-(4-methyl-1,3-thiazol-5-yl)-2-(2-(2-propenoyl)-2,6-diazaspiro[3.4]octan-6-yl)-5,6,7,8-tetrahydro-3-quinolinecarbonitrile], the IC50 in test [1] is 0.047 µM; on KRAS G12C, 0.024 µM; in test [2], 14 µM.
Consider `C=CC(=O)N1CC2(CCN(c3nc4c(c(-c5cc(C(F)F)ccc5Cl)c3C#N)CCN(c3scnc3C)C4)C2)C1` [Example 23-61, 4-(2-chloro-5-(difluoromethyl)phenyl)-7-(4-methyl-1,3-thiazol-5-yl)-2-(2-(2-propenoyl)-2,6-diazaspiro[3.4]octan-6-yl)-5,6,7,8-tetrahydro-1,7-naphthyridine-3-carbonitrile], for which the IC50 worked out at 1.91 µM in test [1], 0.103 µM on KRAS G12C and 12.4 µM in test [2].
Taken in the same sequence, the figures for `C=CC(=O)N1CC2(CCN(c3nc4cc(OC)ccc4c(-c4c(C)ccc5[nH]ncc45)c3F)C2)C1` [Example 27-1, 1-(6-(3-fluoro-7-methoxy-4-(5-methyl-1H-indazol-4-yl)-2-quinolinyl)-2,6-diazaspiro[3.4]octan-2-yl)-2-propen-1-one] were 0.996 µM, 0.134 µM and over 5 µM.
For the compound `C=CC(=O)N1CC2(CCN(c3nc4ccccc4c(-c4c(C)ccc5[nH]ncc45)c3Cl)C2)C1` [Example 27-2, 1-(6-(3-chloro-4-(5-methyl-1H-indazol-4-yl)-2-quinolinyl)-2,6-diazaspiro[3.4]octan-2-yl)-2-propen-1-one], the IC50 in test [1] is 2.64 µM; on KRAS G12C it was 0.121 µM; in test [2], over 5 µM.
